14 compounds from US9073821B2, “Hydroxamic acid derivative” (priority 2010, dated 2015) can be followed below.

The experiment addresses Pseudomonas aeruginosa LpxC enzyme (Pseudomonas aeruginosa (strain ATCC 15692 / DSM 22644 / CIP 104116 / JCM 14847 / LMG 12228 / 1C / PRS 101 / PAO1), UniProt P47205). The experiment is described as follows: biochemical. Format: biochemical. The settings on record: inhibitory activity on Pseudomonas aeruginosa LpxC enzyme, class symbols A/B/C; read-out: Enzyme inhibitory activity. The protocol:
Test 1: Evaluation of the Inhibitory Activity on Pseudomonas aeruginosa LpxC Enzyme
An inhibition curve was constructed for each test compound by performing the aforementioned reaction at varying concentrations of the test compound. From this inhibition curve, the concentration of the test compound at which the formation of the reaction product was suppressed by 50% was determined as the IC50 of the test compound, which was an index for the inhibitory activity on Pseudomonas aeruginosa LpxC enzyme.
For the compound `O=C(NC(C(=O)NO)C(=O)NCC1CC1)c1ccc(-c2ccc(OCCO)cc2)cc1` (centres unmarked) [Compound 9, N-(cyclopropylmethyl)-N′-hydroxy-2-({[4′-(2-hydroxyethoxy)biphenyl-4-yl]carbonyl}amino)propanediamide], the IC50 lay in the range of 10 to 100 nM.

Turning to `CC(C)OCCNC(=O)C(NC(=O)c1ccc(-c2ccc(OCCO)cc2)cc1)C(=O)NO` (centres unmarked) [Compound 10, N-hydroxy-2-({[4′-(2-hydroxyethoxy)biphenyl-4-yl]carbonyl}amino)-N′-[2-(propan-2-yloxy)ethyl]propanediamide], the IC50 is 10 to 100 nM.

For the compound `O=C(NC(C(=O)NO)C(=O)NCc1cncs1)c1ccc(-c2ccc(OCCO)cc2)cc1` (centres unmarked) [Compound 11, N-hydroxy-2-({[4′-(2-hydroxyethoxy)biphenyl-4-yl]carbonyl}amino)-N′-(1,3-thiazol-5-ylmethyl)propanediamide], the IC50 was under 10 nM.

Turning to `O=C(NC(C(=O)NO)C(=O)NCc1ccco1)c1ccc(-c2ccc(OCCO)cc2)cc1` (centres unmarked) [Compound 12, N-(furan-2-ylmethyl)-N′-hydroxy-2-({[4′-(2-hydroxyethoxy)biphenyl-4-yl]carbonyl}amino)propanediamide], the IC50 is under 10 nM.

Turning to `CNC(=O)C(NC(=O)c1ccc(-c2ccc(OCCOCCOCCO)cc2)cc1)C(=O)NO` (centres unmarked) [Compound 13, N-hydroxy-2-{[(4′-{2-[2-(2-hydroxyethoxy)ethoxy]ethoxy}biphenyl-4-yl)carbonyl]amino}-N′-methylpropanediamide], the IC50 fell in the range of 10 to 100 nM.

As for `CNC(=O)C(NC(=O)c1ccc(-c2ccc(OCCOCCO)cc2)cc1)C(=O)NO` (centres unmarked) [Compound 14, N-hydroxy-2-[({4′-[2-(2-hydroxyethoxy)ethoxy]biphenyl-4-yl}carbonyl)amino]-N′-methylpropanediamide], the IC50 was under 10 nM.

As to `CNC(=O)C(C(=O)NO)N(C)C(=O)c1ccc(-c2ccc(OCCOCCO)cc2)cc1` (centres unmarked) [Compound 15, N-hydroxy-2-[({4′-[2-(2-hydroxyethoxy)ethoxy]biphenyl-4-yl}carbonyl)(methyl)amino]-N′-methylpropanediamide], the IC50 was 10 to 100 nM.

Regarding `CNC(=O)C(NC(=O)c1ccc(OC(F)(F)F)cc1)C(=O)NO` (centres unmarked) [Compound 16, N-hydroxy-N′-methyl-2-{[4-(trifluoromethoxy)benzoyl]amino}propanediamide], the IC50 was over 100 nM.

As to `CNC(=O)C(C(=O)NO)N(OC)C(=O)c1ccc(-c2ccccc2)cc1` (centres unmarked) [Compound 17, 2-[(biphenyl-4-ylcarbonyl)(methoxy)amino]-N-hydroxy-N′-methylpropanediamide], the IC50 lay within 10 to 100 nM.

Consider `CNC(=O)C(C(=O)NO)N(C)C(=O)c1ccc(-c2ccccc2C)cc1` (centres unmarked) [Compound 18, N-hydroxy-N′-methyl-2-{methyl[(2′-methylbiphenyl-4-yl)carbonyl]amino}propanediamide], for which the IC50 lay in the range of 10 to 100 nM.

Turning to `CNC(=O)C(C(=O)NO)N(C)C(=O)c1ccc(-c2ccc3c(ccn3C)c2)cc1` (centres unmarked) [Compound 19, N-hydroxy-N′-methyl-2-{methyl[4-(1-methyl-1H-indol-5-yl)benzoyl]amino}propanediamide], the IC50 was under 10 nM.

Take `CNC(=O)C(C(=O)NO)N(C)C(=O)c1ccc(-c2ccc(NCCCCO)cc2)cc1` (centres unmarked) [Compound 20, N-hydroxy-2-[({4′-[(4-hydroxybutyl)amino]biphenyl-4-yl}carbonyl)(methyl)amino]-N′-methylpropanediamide]: the IC50 lay within 10 to 100 nM.

Take `CNC(=O)C(C(=O)NO)N(C)C(=O)c1ccc(-c2ccccc2)cc1C` (centres unmarked) [Compound 21, N-hydroxy-N′-methyl-2-{methyl[(3-methylbiphenyl-4-yl)carbonyl]amino}propanediamide]: the IC50 is over 100 nM.

For the compound `CNC(=O)C(C(=O)NO)N(C)C(=O)c1ccc(OC(F)(F)F)cc1` (centres unmarked) [Compound 22, N-hydroxy-N′-methyl-2-{methyl[4-(trifluoromethoxy)benzoyl]amino}propanediamide], the IC50 was over 100 nM.
